Measured values reported in patent US10947289B2, “Glyco-modified atrial natriuretic peptide” (priority 2013, dated 2021).
Where two headings read alike, the source gives them in different places. *1 amine or outer side, *2 acyl side, *3 side chain or, on linkers, in order; H or OH if unused. Where a SMILES comes first, the peptide text is derived from it. Bridges are numbered along the chain shown (N, C = ends). [ ]: non-standard residue; d: D form. X2 = CC(=O)N[C@H]1[C@H](O[C@H]2[C@H](O)[C@@H](NC(C)=O)[C@H](OC[C@H](N[*:1])C(=O)[*:2])O[C@@H]2CO)O[C@H](CO)[C@@H](O[C@@H]2O[C@H](CO[C@H]3O[C@H](CO)[C@@H](O)[C@H](O)[C@@H]3O[C@@H]3O[C@H](CO)[C@@H](O[C@@H]4O[C@H](CO[C@]5(C(=O)O)C[C@H](O)[C@@H](NC(C)=O)[C@H]([C@H](O)[C@H](O)CO)O5)[C@H](O)[C@H](O)[C@H]4O)[C@H](O)[C@H]3NC(C)=O)[C@@H](O)[C@H](O[C@H]3O[C@H](CO)[C@@H](O)[C@H](O)[C@@H]3O[C@@H]3O[C@H](CO)[C@@H](O[C@@H]4O[C@H](CO[C@]5(C(=O)O)C[C@H](O)[C@@H](NC(C)=O)[C@H]([C@H](O)[C@H](O)CO)O5)[C@H](O)[C@H](O)[C@H]4O)[C@H](O)[C@H]3NC(C)=O)[C@@H]2O)[C@@H]1O

Molecular target: T1, human GC-A (Homo sapiens, UniProt P16066)
T1 construct: expressed in transfected cells; host or cells: CHO cells
T1 sequence (P16066 33-1061): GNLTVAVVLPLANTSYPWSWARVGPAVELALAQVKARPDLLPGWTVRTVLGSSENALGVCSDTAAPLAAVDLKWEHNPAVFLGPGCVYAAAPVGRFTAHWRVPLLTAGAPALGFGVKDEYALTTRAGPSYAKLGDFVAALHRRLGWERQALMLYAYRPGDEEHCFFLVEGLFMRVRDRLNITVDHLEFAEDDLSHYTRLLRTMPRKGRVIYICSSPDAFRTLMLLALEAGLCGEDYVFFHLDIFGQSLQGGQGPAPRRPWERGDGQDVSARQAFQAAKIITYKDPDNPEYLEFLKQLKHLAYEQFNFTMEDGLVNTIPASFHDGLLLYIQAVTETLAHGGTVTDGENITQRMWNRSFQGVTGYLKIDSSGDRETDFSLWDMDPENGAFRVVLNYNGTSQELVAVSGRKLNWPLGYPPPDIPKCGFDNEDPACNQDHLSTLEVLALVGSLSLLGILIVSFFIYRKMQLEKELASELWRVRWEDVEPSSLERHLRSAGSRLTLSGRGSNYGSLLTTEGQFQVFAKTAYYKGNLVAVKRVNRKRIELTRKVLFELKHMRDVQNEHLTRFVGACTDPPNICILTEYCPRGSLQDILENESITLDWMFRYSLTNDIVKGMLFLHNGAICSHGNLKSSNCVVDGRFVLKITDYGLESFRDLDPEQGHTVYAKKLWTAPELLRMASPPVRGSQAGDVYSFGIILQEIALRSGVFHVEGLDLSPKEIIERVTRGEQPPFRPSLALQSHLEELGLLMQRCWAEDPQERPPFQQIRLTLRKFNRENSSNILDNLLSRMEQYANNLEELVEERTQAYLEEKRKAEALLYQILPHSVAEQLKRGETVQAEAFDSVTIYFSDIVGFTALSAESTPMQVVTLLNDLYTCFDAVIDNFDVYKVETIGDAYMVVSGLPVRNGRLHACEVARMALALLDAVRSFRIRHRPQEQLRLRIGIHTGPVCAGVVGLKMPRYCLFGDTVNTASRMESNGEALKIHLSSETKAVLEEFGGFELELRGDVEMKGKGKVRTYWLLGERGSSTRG
Test: cGMP elevating activity in CHO/human GC-A cells (Test Example 1)
Format: cell-based
Conditions: for Emax: maximum T/C in range 0.01-100 nM, solvent only = 0, 1 nM ANP = 1
Outline: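 cGMP in lysates was read by HTRF after a 15 min peptide exposure of GC-A-expressing CHO cells in a CO2 incubator, following 10 min room-temperature preincubation with 1.6 mM IBMX in KRB. T/C values were normalised between solvent wells (0) and 1 nM ANP wells (1).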

[1] = CHO/human GC-A cells, concentration at T/C=0.5, 15 minutes incubation, read-out: EC50

| Molecule | EC50 | EC50 [1] | Emax |
| --- | --- | --- | --- |
| CC[C@H](C)[C@@H]1NC(=O)[C@H](CCCNC(=N)N)NC(=O)[C@H](CC(=O)O)NC(=O)[C@H](CCSC)NC(=O)[C@H](CCCNC(=N)N)NC(=O)CNC(=O)CNC(=O)[C@H](Cc2ccccc2)NC(=O)[C@@H](NC(=O)[C@H](CO)NC(=O)[C@H](CO)NC(=O)[C@H](CCCNC(=N)N)NC(=O)[C@H](CCCNC(=N)N)NC(=O)[C@H](CC(C)C)NC(=O)[C@@H](N)CO[C@@H]2O[C@H](CO)[C@@H](O[C@@H]3O[C@H](CO)[C@@H](O[C@@H]4O[C@H](CO[C@H]5O[C@H](CO)[C@@H](O)[C@H](O)[C@@H]5O[C@@H]5O[C@H](CO)[C@@H](O[C@@H]6O[C@H](CO[C@]7(C(=O)O)C[C@H](O)[C@@H](NC(C)=O)[C@H]([C@H](O)[C@H](O)CO)O7)[C@H](O)[C@H](O)[C@H]6O)[C@H](O)[C@H]5NC(C)=O)[C@@H](O)[C@H](O[C@H]5O[C@H](CO)[C@@H](O)[C@H](O)[C@@H]5O[C@@H]5O[C@H](CO)[C@@H](O[C@@H]6O[C@H](CO[C@]7(C(=O)O)C[C@H](O)[C@@H](NC(C)=O)[C@H]([C@H](O)[C@H](O)CO)O7)[C@H](O)[C@H](O)[C@H]6O)[C@H](O)[C@H]5NC(C)=O)[C@@H]4O)[C@H](O)[C@H]3NC(C)=O)[C@H](O)[C@H]2NC(C)=O)CSSC[C@@H](C(=O)N[C@@H](CC(N)=O)C(=O)N[C@@H](CO)C(=O)N[C@@H](Cc2ccccc2)C(=O)N[C@@H](CCCNC(=N)N)C(=O)N[C@@H](Cc2ccc(O)cc2)C(=O)O)NC(=O)CNC(=O)[C@H](CC(C)C)NC(=O)CNC(=O)[C@H](CO)NC(=O)[C@H](CCC(N)=O)NC(=O)[C@H](C)NC(=O)CNC1=O [Compound 2-5, (SG-)Ser-hANP(2-28)] (H-[X2]LRRSSCFGGRMDRIGAQSGLGCNSFRY-OH; disulfide 7-23) | 0.082 nM |  |  |
| CC[C@H](C)[C@@H]1NC(=O)[C@H](CCCNC(=N)N)NC(=O)[C@H](CC(=O)O)NC(=O)[C@H](CCSC)NC(=O)[C@H](CCCNC(=N)N)NC(=O)CNC(=O)CNC(=O)[C@H](Cc2ccccc2)NC(=O)[C@@H](NC(=O)[C@H](CO)NC(=O)[C@H](CO)NC(=O)[C@H](CCCNC(=N)N)NC(=O)[C@H](CCCNC(=N)N)NC(=O)[C@H](CC(C)C)NC(=O)[C@H](CO)NC(=O)CCSC2CC(=O)N(CCC(=O)NCCOCCOCCOCCOCCC(=O)N[C@@H](CCC(=O)NCCO[C@@H]3O[C@H](CO)[C@@H](O[C@@H]4O[C@H](CO)[C@@H](O[C@@H]5O[C@H](CO[C@H]6O[C@H](CO)[C@@H](O)[C@H](O)[C@@H]6O[C@@H]6O[C@H](CO)[C@@H](O[C@@H]7O[C@H](CO[C@]8(C(=O)O)C[C@H](O)[C@@H](NC(C)=O)[C@H]([C@H](O)[C@H](O)CO)O8)[C@H](O)[C@H](O)[C@H]7O)[C@H](O)[C@H]6NC(C)=O)[C@@H](O)[C@H](O[C@H]6O[C@H](CO)[C@@H](O)[C@H](O)[C@@H]6O[C@@H]6O[C@H](CO)[C@@H](O[C@@H]7O[C@H](CO[C@]8(C(=O)O)C[C@H](O)[C@@H](NC(C)=O)[C@H]([C@H](O)[C@H](O)CO)O8)[C@H](O)[C@H](O)[C@H]7O)[C@H](O)[C@H]6NC(C)=O)[C@@H]5O)[C@H](O)[C@H]4NC(C)=O)[C@H](O)[C@H]3NC(C)=O)C(=O)NCCO[C@@H]3O[C@H](CO)[C@@H](O[C@@H]4O[C@H](CO)[C@@H](O[C@@H]5O[C@H](CO[C@H]6O[C@H](CO)[C@@H](O)[C@H](O)[C@@H]6O[C@@H]6O[C@H](CO)[C@@H](O[C@@H]7O[C@H](CO[C@]8(C(=O)O)C[C@H](O)[C@@H](NC(C)=O)[C@H]([C@H](O)[C@H](O)CO)O8)[C@H](O)[C@H](O)[C@H]7O)[C@H](O)[C@H]6NC(C)=O)[C@@H](O)[C@H](O[C@H]6O[C@H](CO)[C@@H](O)[C@H](O)[C@@H]6O[C@@H]6O[C@H](CO)[C@@H](O[C@@H]7O[C@H](CO[C@]8(C(=O)O)C[C@H](O)[C@@H](NC(C)=O)[C@H]([C@H](O)[C@H](O)CO)O8)[C@H](O)[C@H](O)[C@H]7O)[C@H](O)[C@H]6NC(C)=O)[C@@H]5O)[C@H](O)[C@H]4NC(C)=O)[C@H](O)[C@H]3NC(C)=O)C2=O)CSSC[C@@H](C(=O)N[C@@H](CC(N)=O)C(=O)N[C@@H](CO)C(=O)N[C@@H](Cc2ccccc2)C(=O)N[C@@H](CCCNC(=N)N)C(=O)N[C@@H](Cc2ccc(O)cc2)C(=O)O)NC(=O)CNC(=O)[C@H](CC(C)C)NC(=O)CNC(=O)[C@H](CO)NC(=O)[C@H](CCC(N)=O)NC(=O)[C@H](C)NC(=O)CNC1=O (stereo partly shown) [Compound 2-32, SG-(SG-)Gln*-PEG(3)-Mal-hANP(1-28)] | 0.41 nM |  |  |
| [(SG2-)Cys-Gly]5-hANP(1-28) [Compound 2-18] |  | 48 nM | 0.63 |
| CC[C@H](C)[C@@H]1NC(=O)[C@H](CCCNC(=N)N)NC(=O)[C@H](CC(=O)O)NC(=O)[C@H](CCSC)NC(=O)[C@H](CCCNC(=N)N)NC(=O)CNC(=O)CNC(=O)[C@H](Cc2ccccc2)NC(=O)[C@@H](NC(=O)[C@H](CO)NC(=O)[C@H](CO)NC(=O)[C@H](CCCNC(=N)N)NC(=O)[C@H](CCCNC(=N)N)NC(=O)[C@H](CC(C)C)NC(=O)[C@H](CO)NC(=O)CCOCCOCCOCCOCCNC(=O)[C@H](CC(=O)N[C@@H]2O[C@H](CO)[C@@H](O[C@@H]3O[C@H](CO)[C@@H](O[C@@H]4O[C@H](CO[C@H]5O[C@H](CO)[C@@H](O)[C@H](O)[C@@H]5O[C@@H]5O[C@H](CO)[C@@H](O[C@@H]6O[C@H](CO)[C@H](O)[C@H](O)[C@H]6O)[C@H](O)[C@H]5NC(C)=O)[C@@H](O)[C@H](O[C@H]5O[C@H](CO)[C@@H](O)[C@H](O)[C@@H]5O[C@@H]5O[C@H](CO)[C@@H](O[C@@H]6O[C@H](CO)[C@H](O)[C@H](O)[C@H]6O)[C@H](O)[C@H]5NC(C)=O)[C@@H]4O)[C@H](O)[C@H]3NC(C)=O)[C@H](O)[C@H]2NC(C)=O)NC(=O)CO[C@@H]2O[C@H](CO)[C@@H](O[C@@H]3O[C@H](CO)[C@@H](O[C@@H]4O[C@H](CO[C@H]5O[C@H](CO)[C@@H](O)[C@H](O)[C@@H]5O[C@@H]5O[C@H](CO)[C@@H](O[C@@H]6O[C@H](CO)[C@H](O)[C@H](O)[C@H]6O)[C@H](O)[C@H]5NC(C)=O)[C@@H](O)[C@H](O[C@H]5O[C@H](CO)[C@@H](O)[C@H](O)[C@@H]5O[C@@H]5O[C@H](CO)[C@@H](O[C@@H]6O[C@H](CO)[C@H](O)[C@H](O)[C@H]6O)[C@H](O)[C@H]5NC(C)=O)[C@@H]4O)[C@H](O)[C@H]3NC(C)=O)[C@H](O)[C@H]2NC(C)=O)CSSC[C@@H](C(=O)N[C@@H](CC(N)=O)C(=O)N[C@@H](CO)C(=O)N[C@@H](Cc2ccccc2)C(=O)N[C@@H](CCCNC(=N)N)C(=O)N[C@@H](Cc2ccc(O)cc2)C(=O)O)NC(=O)CNC(=O)[C@H](CC(C)C)NC(=O)CNC(=O)[C@H](CO)NC(=O)[C@H](CCC(N)=O)NC(=O)[C@H](C)NC(=O)CNC1=O [Compound 2-21, AG(9)-(AG(9)-)Asn-PEG(3)-hANP(1-28)] | 0.097 nM |  |  |
| SG2-(SG2-)Lys-[SG2-(SG2-)-Lys-]Lys-PEG(3)-hANP(1-28) [Compound 2-20] |  | 64 nM | 0.59 |
